Like-named read-outs stand apart in the source and are kept apart here.
Tests used:
[1] = test system: tyrosine hydroxylase positive mesencephalic neurons injured by MPP+; experiment: Neuroprotective effect on damage induced by MPP+ on culture of mesencephalic neurons; assay type: cell-based; settings: Rattus norvegicus, Neuron, MPP+ 50 μM, 48h, read-out: % reversion of TH positive neurons (MPTP-mediated degradation of dopaminergic neurons)
Excerpt: A female Wistar rat (Janvier; France) of 15 days gestation was terminated by cervical dislocation, the fetuses were removed from the uterus and their brains were harvested and placed in ice-cold medium (Leibovitz's L15 medium, Gibco). Only ventral mesencephalic flexure was used for the cell preparations. The midbrain was dissociated by trypsinization. The reaction was stopped, and the suspension was triturated and centrifuged. The pellet of dissociated cells was resuspended in chemically defined medium consisted of Neurobasal (Gibco), containing B27 supplement (Gibco) and L-glutamine (Gibco), 10 ng/ml (BDNF; Pepro Tech, France) and 1 ng/ml (GDNF; Pepro Tech).
Viable primary rat embryo mesencephalic cells were counted and seeded on 96-multi-wells plate precoated with poly-L-lysine. Cells were maintained in a humidified incubator at 37° C. in 5% CO2-95% air atmosphere and medium changed on day 2. On day 6, the culture medium was removed and replaced by new media without neurotrophic factors containing the compounds of the present disclosure (50-10 μM) or vehicle (0.1% DMSO). After 1h exposure, injury of mesencephalon neuronal cultures was induced by MPP^+ (50 μM) for further 48h. A mixture of the growth factors GDNF (1 ng/ml) and BDNF (10 ng/ml) were used as reference compound. On day 8, the tyrosine hydroxylase positive neurons were evaluated. Cultures were fixed 30 min at 4° C. with paraformaldehyde in PBS (4%, Thermo Scientific, 28908). After, cells were permeabilized with 0.1% Triton X100 for 30 min, saturated with PBS containing 3% of BSA (bovine serum albumin) and incubated 2h with anti-tyrosine hydroxylase antibody (Sigma, 1:10000; clone TH-2) at 1/10000 in PBS containing 0.5% of BSA. Cells were washed three times with PBS containing 0.5% of BSA and incubated 1h with goat anti mouse antibody coupled with AF488 (Invitrogen A11001) diluted at 1/1000 in PBS containing 0.5% of BSA. Finally, nuclei were stained with DAPI at 1/1000 in PBS containing 0.5% of BSA. After rinsing with PBS, the plate was visualized and examined with Cell Insight HCS (Thermo Scientific) to determine the number of tyrosine hydroxylase positive cells per well.
The results for each well were expressed as a percentage by setting the density of tyrosine hydroxylase positive cells under control conditions to 100%. Then the result for each condition was reported as mean±SEM from 4 independent cultures.
A global analysis of the data was performed using a one-way analysis of variance (ANOVA), followed by Fisher's Protected Least Significant Difference when applicable. The level of significance was set to p<0.05.

[2] = test system: Peripheral blood mononuclear cells co-cultured with venular endothelial cells (HUVEC) (LPS system); experiment: BioMAP LPS system; assay type: cell-based, human; settings: procedure of Example 827
[3] = test system: Peripheral blood mononuclear cells co-cultured with B-cells (BT system)
[4] = test system: Dermal fibroblasts (HDF3CGF system); experiment: BioMAP HDF3CGF system (IL-1β, TNFα, IFNγ, EGF, bFGF, PDGF-BB); assay type: cell-based, human; settings: for activation at 10 µM: 72 h, read-out: % increase in 72 Hour Proliferation
[5] = Homo sapiens, HUVEC, 24 h, 10 uM, read-out: % decrease in TissueFactor
[6] = Homo sapiens, HUVEC, 24 h, 10 uM, read-out: % increase in sTNFα
[7] = 10 uM, procedure of Example 829
[8] = Homo sapiens, HUVEC, 24 h, 10 uM, read-out: % decrease in IL-1α
[9] = 10 uM, procedure of Example 833
[10] = Homo sapiens, HUVEC, 24 h, 1 uM, read-out: % decrease in sPGE2
[11] = Homo sapiens, HUVEC, 24 h, 10 uM, read-out: % decrease in sPGE2
[12] = Homo sapiens, HUVEC, 24 h, 1 uM, read-out: % decrease in IL-1α
[13] = Homo sapiens, HUVEC, 24 h, 10 uM, read-out: % decrease in IL-8
[14] = Homo sapiens, Fibroblast, 24 h, 10 uM, read-out: % decrease in Collagen III
[15] = Homo sapiens, HUVEC, 24 h, 1 uM, read-out: % decrease in IL-8
[16] = Homo sapiens, Fibroblast, 10 uM

CC(C)(CO)[C@@H](O)C(=O)NCCC(=O)NCCSC(=O)CCC(=O)O [Compound 1, (R)-4-((2-(3-(2,4-dihydroxy-3,3-dimethylbutanamido)propanamido)ethyl)thio)-4-oxobutanoic acid]
inhibition at 10 µM [1]: ≥ 30%

C[C@@H](O)CC(=O)SCCNC(=O)CCNC(=O)[C@H](O)C(C)(C)CO [Compound 38, S-2-{3-[(R)-2,4-dihydroxy-3,3-dimethylbutyrylamino]propionylamino} ethyl (R)-3-hydroxybutanethioate]
inhibition at 10 µM [1]: ≥ 60%

C[C@@H](O)CC(=O)CC(=O)SCCNC(=O)CCNC(=O)[C@H](O)C(C)(C)CO [Compound 42, (2R)-2,4-dihydroxy-N-[2-[(2-[[(5R)-5-hydroxy-3-oxohexanoyl]sulfanyl]ethyl)carbamoyl]ethyl]-3,3-dimethylbutanamide]
% decrease in Thrombomodulin ([2]; 10 uM): ≥10%
inhibition at 10 µM [2, 5]: ≥ 10%
activation at 10 µM [2, 6]: ≥ 10%
inhibition at 10 µM [1]: ≥ 60%
% increase in sIL-2 [3, 7]: ≥10%
% increase in sTNFα [3, 7]: ≥10%

CC(C)(COC(=O)OCC[N+](C)(C)C)[C@@H](O)C(=O)NCCC(=O)NCCSC(=O)CCC(=O)O [Compound 116, [2-([[(3R)-3-[[2-([2-[(3-carboxypropanoyl)sulfanyl]ethyl]carbamoyl)ethyl]carbamoyl]-3-hydroxy-2,2-dimethylpropoxy]carbonyl]oxy)ethyl]trimethylazanium]
inhibition at 10 µM [2, 8]: ≥ 10%
% decrease in Collagen I [4, 9]: ≥10%
inhibition at 10 µM [1]: ≥ 30%
% decrease in B-cell proliferation ([3]; 1 uM, procedure of Example 829): ≥10%
% decrease in sTNFα [3, 7]: ≥10%

COC(=O)CCC(=O)SCCNC(=O)CCNC(=O)[C@H](O)C(C)(C)COC(C)=O [Compound 138]
% increase in Tissue Factor ([2]; 1 uM): ≥10%
inhibition at 1 µM [2, 10]: ≥ 10%
% decrease in Collagen I ([4]; 1 uM, procedure of Example 833): ≥10%
% decrease in sIL-2 ([3]; 1 uM, procedure of Example 829): ≥10%
% decrease in sTNFα ([3]; 1 uM, procedure of Example 829): ≥20%

COC(=O)CC(SCCNC(=O)CCNC(=O)[C@H](O)C(C)(C)COC(C)=O)C(=O)OC (stereo partly drawn) [Compound 149, 1,4-dimethyl 2-[(2-[3-[(2R)-4-(acetyloxy)-2-hydroxy-3,3-dimethylbutanamido]propanamido]ethyl)sulfanyl]butanedioate]
% increase in Tissue Factor ([2]; 1 uM): ≥10%
% increase in IL-8 ([2]; 10 uM): ≥10%
inhibition at 10 µM [2, 8]: ≥ 10%
inhibition at 10 µM [2, 5]: ≥ 20%
inhibition at 10 µM [2, 11]: ≥ 10%
% increase in Collagen I ([4]; 1 uM, procedure of Example 833): ≥10%
% increase in sIL-2 [3, 7]: ≥20%
% increase in sTNFα [3, 7]: ≥10%

CC(C)(CO)[C@@H](O)C(=O)NCCC(=O)NCCSC(=O)[C@@H](N)Cc1ccc(O)c(O)c1 [Compound 371, (2R)—N-[2-[(2-[[(2S)-2-amino-3-(3,4-dihydroxyphenyl)propanoyl]sulfanyl]ethyl)carbamoyl]ethyl]-2,4-dihydroxy-3,3-dimethylbutanamide]
% decrease in sTNFα ([2]; 10 uM): ≥10%
inhibition at 1 µM [2, 12]: ≥ 10%
inhibition at 10 µM [2, 13]: ≥ 10%
inhibition at 10 µM [2, 11]: ≥ 10%
% increase in PAI-I ([4]; 10 uM): ≥10%
% decrease in Collagen I [4, 9]: ≥10%
inhibition at 10 µM [4, 14]: ≥ 10%
inhibition at 10 µM [1]: ≥ 60%
% increase in sIL-2 ([3]; 1 uM, procedure of Example 829): ≥20%
% increase in PBMC cytotoxicity ([3]; human, 72 h, 10 µM): ≥10%

CCCCCCC(=O)SCCNC(=O)CCNC(=O)[C@H](O)C(C)(C)CO [Compound 372, (2R)—N-(2-[[2-(heptanoylsulfanyl)ethyl]carbamoyl]ethyl)-2,4-dihydroxy-3,3-dimethylbutanamide]
inhibition at 1 µM [2, 12]: ≥ 10%
inhibition at 10 µM [2, 13]: ≥ 20%
inhibition at 10 µM [2, 5]: ≥ 10%
activation at 10 µM [2, 6]: ≥ 10%
% increase in PAI-I ([4]; 10 uM): ≥10%
inhibition at 10 µM [4, 14]: ≥ 10%
% increase in sIL-2 ([3]; 1 uM, procedure of Example 829): ≥10%
% increase in sIL-17 [3, 7]: ≥20%

CC(=O)SCCNC(=O)CCNC(=O)[C@H](O)C(C)(C)COC(=O)[C@@H](N)Cc1ccc(O)c(O)c1 [Compound 498, (3R)-3-[(2-[[2-(acetylsulfanyl)ethyl]carbamoyl]ethyl)carbamoyl]-3-hydroxy-2,2-dimethylpropyl (2S)-2-amino-3-(3,4-dihydroxyphenyl)propanoate]
% decrease in sTNFα ([2]; 1 uM): ≥10%
inhibition at 1 µM [2, 15]: ≥ 20%
inhibition at 1 µM [2, 10]: ≥ 10%
inhibition at 10 µM [2, 8]: ≥ 10%
% decrease in TIMP-2 ([4]; 1 uM): ≥10%
% increase in M-CSF ([4]; 10 uM): ≥10%
% increase in SRB ([4]; 10 uM): ≥10%
% decrease in Collagen I [4, 9]: ≥10%
inhibition at 10 µM [4, 14]: ≥ 10%
inhibition at 10 µM [1]: ≥ 60%
% increase in sTNFα ([3]; 1 uM, procedure of Example 829): ≥10%
% increase in sIL-2 [3, 7]: ≥20%

CC(=O)SCCNC(=O)CCNC(=O)[C@H](O)C(C)(C)COC(=O)[C@H](C)N [Compound 502, (3R)-3-[(2-[[2-(acetylsulfanyl)ethyl]carbamoyl]ethyl)carbamoyl]-3-hydroxy-2,2-dimethylpropyl (2S)-2-aminopropanoate]
inhibition at 10 µM [2, 13]: ≥ 10%
inhibition at 10 µM [2, 5]: ≥ 10%
inhibition at 10 µM [2, 11]: ≥ 10%
% increase in SRB ([4]; 1 uM): ≥10%

CC(=O)SCCNC(=O)CCNC(=O)[C@H](O)C(C)(C)COC(=O)CN [Compound 560, (3R)-3-[(2-[[2-(acetylsulfanyl)ethyl]carbamoyl]ethyl)carbamoyl]-3-hydroxy-2,2-dimethylpropyl 2-aminoacetate]
inhibition at 10 µM [1]: ≥ 30%

CC(=O)OCC(C)(C)[C@@H](OC(C)=O)C(=O)NCCC(=O)NCCSC(C)=O [Compound 1264, (1R)-3-(acetyloxy)-1-[(2-[[2-(acetylsulfanyl)ethyl]carbamoyl]ethyl)carbamoyl]-2,2-dimethylpropyl acetate]
% increase in PAI-I ([4]; 1 uM): ≥10%
% increase in TIMP-2 ([4]; 10 uM): ≥10%
activation at 10 µM [4, 16]: ≥ 10%
% decrease in sTNFα [3, 7]: ≥10%
% increase in B-cell Proliferation [3, 7]: ≥10%

COC(=O)CCC(=O)SCCNC(=O)CCNC(=O)[C@H](OC(=O)CN)C(C)(C)CO [Compound 1294, methyl 4-[(2-[3-[(2R)-2-[(2-aminoacetyl)oxy]-4-hydroxy-3,3-dimethylbutanamido]propanamido]ethyl)sulfanyl]-4-oxobutanoate]
inhibition at 1 µM [2, 15]: ≥ 10%
activation at 1 µM ([2]; Homo sapiens, HUVEC, 24 h, 1 uM, read-out: % increase in sTNFα): ≥ 10%
inhibition at 10 µM [2, 5]: ≥ 10%
inhibition at 10 µM [2, 11]: ≥ 10%
inhibition at 1 µM ([4]; Homo sapiens, Fibroblast, 24 h, 1 uM, read-out: % decrease in Collagen III): ≥ 10%
activation at 10 µM [4, 16]: ≥ 20%
% increase in B-cell Proliferation ([3]; 1 uM, procedure of Example 829): ≥10%
% decrease in sIL-2 [3, 7]: ≥10%

COC(=O)CCC(=O)SCCNC(=O)CCNC(=O)[C@H](OC(=O)CNC(C)=O)C(C)(C)CO [Compound 1298, methyl 4-[(2-[3-[(2R)-2-[(2-acetamidoacetyl)oxy]-4-hydroxy-3,3-dimethylbutanamido]propanamido]ethyl)sulfanyl]-4-oxobutanoate]
% decrease in M-CSF ([2]; 1 uM): ≥20%
% decrease in sTNFα ([2]; 1 uM): ≥10%
% decrease in Thrombomodulin ([2]; 10 uM): ≥10%
inhibition at 1 µM [2, 15]: ≥ 10%
inhibition at 1 µM [2, 10]: ≥ 20%
inhibition at 10 µM [2, 8]: ≥ 10%
inhibition at 10 µM [2, 5]: ≥ 10%
activation at 10 µM [2, 6]: ≥ 10%
% decrease in TIMP-1 ([4]; 1 uM): ≥10%
% decrease in TIMP-2 ([4]; 1 uM): ≥10%
% increase in B-cell Proliferation ([3]; 1 uM, procedure of Example 829): ≥10%
% increase in sIL-17 ([3]; 1 uM, procedure of Example 829): ≥20%
% decrease in sTNFα [3, 7]: ≥10%

— patent publication US20230107216A1, “PANTETHEINE DERIVATIVES AND USES THEREOF” (Comet Therapeutics, Inc., priority 2018, published 2023)
